Source: publication PMC4308941 (Cough (London, England), 2014)

Tests used:
[1] = test system: normotensive volunteers / hypertensive patients; design: method as in PMID 11116103; details: cited from earlier work
[2] = test system: guinea pigs; details: cited from earlier work
[3] = single dose, cited from earlier work
[4] = test system: bradykinin (BK); test: Bradykinin plasma levels; type: in vivo, human; details: day 7 of treatment period, zofenopril 30 mg vs ramipril 10 mg
Protocol: (§1) Blood samples for the measurement of PK parameters and for BK determination were obtained at pre-dose and after drug administration for each of the two study periods (Table 2). […] Repeated pre-dose PK variables determination was performed in order to establish baseline variability.

[5] = test system: healthy volunteers; test: Adverse event and vital signs monitoring; type: in vivo, human
Protocol: (§2) This was a repeated-dose, balanced, two-sequence, two-period, two-treatment, non-placebo controlled, randomized, crossover design study. Since this study examined two ACE-i agents with similar characteristics and was performed using an open design, blinding was not necessary. […] The administered doses were those used for treatment of hypertension and which would yield a similar percentage of responders.

[6] = test system: healthy volunteers; test: Capsaicin cough challenge (cough sensitivity C2/C5); type: in vivo, human
Protocol: as §2
(§3) Capsaicin and citric acid cough challenges were performed prior to and following each 7-day treatment period (Table 2). Cough sensitivity was assessed as the lowest capsaicin or citric acid concentrations causing at least 2 (C2) or 5 coughs (C5), provided that cough was still present following inhalation of the next tussigenic concentration. C2 and C5 values were converted to logC2 and logC5, respectively, for analysis. Concentrations of both capsaicin and citric acid were prepared according to standard procedures, nebulized by a jet nebulizer (DeVilbiss 646, DeVilbiss Health Care Inc., Somerset, PA) driven by compressed air (8 L/min), and inhaled for 1 min during normal tidal breathing. Volunteers undergoing cough challenges were specifically instructed not to attempt to suppress coughs and not to talk immediately after inhalation of the tussigenic agent. In addition, subjects were given the following instruction: “allow yourself to cough if you need to, and as much as you need to”. Subjects were also requested to note on a diary the occurrence of spontaneous cough during the two 7-day treatment periods, using a verbal scale.

[7] = test system: rabbits; details: cited from earlier work
[8] = test system: healthy volunteers; test: Airway inflammation by fractional exhaled nitric oxide (FeNO); type: in vivo, human
Text: FeNO measurements were always performed before cough challenges using a standardized single-breath method with an electrochemical analyzer (HypAir FeNO system, Medisoft, Sorinnes, BE). Subjects were seated (with no nose clip), and exhaled to residual volume, inserted the mouthpiece, inhaled to total lung capacity, then exhaled for 10 seconds at a constant flow rate of 0.05 L/s ± 10%. The end-point of measurement was considered when a plateau of at least 4 seconds was observed. Exhalations were repeated after a 30-second period of relaxation until 3 independent FeNO values with ≤10% variation were obtained.

[9] = test system: healthy volunteers; test: Spontaneous cough recordings (diary); type: in vivo, human; details: for total distinct coughing episodes: during 7-day treatment, 40 volunteers; for volunteers who recorded at least 1 spontaneous coughing episode: out of 40, during 7-day treatment
Protocol: as §3
A p value <0.05 was considered statistically significant.

[10] = test system: healthy volunteers; test: Citric acid cough challenge (cough sensitivity C2/C5); type: in vivo, human
Protocol: as §2, §3

[11] = test system: ACE; details: compared with complexes of other ACE inhibitors; cited from earlier work
[12] = cited from earlier work
[13] = test system: prostaglandins; design: method as in PMID 1850188; details: in-vivo study, compared with other ACE-i; cited from earlier work
[14] = Plasma pharmacokinetics at steady state (day 7)
Protocol: as §1
Spontaneous cough occurring during the two treatment periods was only qualitatively assessed, as the prevalence was expected to be low or very low. AUCss,τ PK parameters were calculated from the individual concentration-time data by using the program WinNonlin software (Pharsight Corporation, Mountain View, CA, USA) and summarized by treatment by means of descriptive statistics, in order to determine mean and standard deviation values. Paired t-test was used to compare mean FeNO values recorded after administration of the test and the reference drug. Statistical analyses were performed by using GraphPad Prism, version 3.02 (GraphPad Software, Inc. La Jolla, CA); sample size and power calculations were performed by using a dedicated software (nQuery Advisor, release 2.0, Los Angeles, CA). A p value <0.05 was considered statistically significant.

[15] = test system: plasma ACE activity; details: at 24 h after single oral doses of 30 mg; cited from earlier work

Structure (SMILES): CCOC(=O)[C@H](CCc1ccccc1)N[C@@H](C)C(=O)N1CCC[C@H]1C(=O)O [enalapril]
- effect on FeNO in hypertensive patients [1]: did not show FeNO increase
- effect on FeNO in normotensive volunteers ([1]; within a few hours): capable of increasing FeNO

Structure (SMILES): CCOC(=O)[C@H](CCc1ccccc1)N[C@@H](C)C(=O)N1[C@H](C(=O)O)C[C@@H]2CCC[C@@H]21 [ramipril]
- augmentation of citric-acid induced cough [2]: 40-60%
- time to peak antihypertensive effect ([3]; after oral administration): 3 to 6 h
- duration of antihypertensive effect ([3]; oral): 24 h
- BK plasma levels after administration [4]: No difference
- subjects reporting adverse events of mild intensity ([5]; human, in vivo, 7 days): 5
- capsaicin LogC5 (concentration causing at least 5 coughs), mean ± SD ([6]; human, in vivo, 7 days): 0.45 ± 0.38 μM
- cough response induced by mechanical and chemical airway stimulation [7]: increased
- FeNO, mean ± SD ([8]; in vivo): 33 ± 16 PPB
- total distinct coughing episodes [9]: 24
- volunteers who recorded at least 1 spontaneous coughing episode [9]: 9
- citric acid LogC2, mean ± SD ([10]; human, in vivo, 7 days): 1.48 ± 1.09 mM
- citric acid LogC5, mean ± SD ([10]; human, in vivo, 7 days): 2.23 ± 1.04 mM

Structure (SMILES): C[C@H](N[C@@H](CCc1ccccc1)C(=O)O)C(=O)N1[C@H](C(=O)O)C[C@@H]2CCC[C@@H]21 [ramiprilat]
- stability/dissociation of inhibitor-ACE complex [11]: dissociates more slowly
- time to peak plasma concentrations ([12]; after intake of ramipril): 2 to 4 h

Structure (SMILES): C[C@H](CSC(=O)c1ccccc1)C(=O)N1C[C@@H](Sc2ccccc2)C[C@H]1C(=O)O [zofenopril]
- effect on citric-acid induced cough [2]: did not increase
- BK plasma levels after administration [4]: No difference
- capability to stimulate the production of prostaglandins [13]: less than that of other ACE-i
- subjects reporting adverse events of mild intensity ([5]; of 40 subjects, headache, vomit, backache, vertigo): 8
- Cmin (lowest plasma concentration in the τ period) ([14]; 24 h interval after administration on day 7): 0
- AUCss,τ, mean ± SD ([14]; 24 h interval after drug administration on day 7, zofenopril 30 mg/day or ramipril 10 mg/day oral): 84.25 ± 34.47 ng/ml x h
- capsaicin LogC2 (concentration causing at least 2 coughs), mean ± SD ([6]; after 7-day treatment (zofenopril 30 mg/day, ramipril 10 mg/day), 40 volunteers, controls 0.81 ± 0.42 (zofenopril), 0.78 ± 0.41 (ramipril)): 0.75 ± 0.40 μM
- capsaicin LogC5 (concentration causing at least 5 coughs), mean ± SD ([6]; after 7-day treatment, 40 volunteers, controls 1.4 ± 0.72 (zofenopril), 1.3 ± 0.63 (ramipril)): 1.3 ± 0.68 μM
- cough response induced by mechanical and chemical airway stimulation [7]: but not zofenopril, increased
- FeNO, mean ± SD ([8]; after 7-day treatment, controls 22 ± 12 (zofenopril), 24 ± 9.6 (ramipril)): 26 ± 12 PPB
- oral absorption ([12]; after oral administration): completely absorbed
- total distinct coughing episodes [9]: 36
- volunteers who recorded at least 1 spontaneous coughing episode [9]: 7
- citric acid LogC2, mean ± SD ([10]; after 7-day treatment, 40 volunteers, controls 1.85 ± 1.24 (zofenopril), 1.80 ± 1.28 (ramipril)): 1.81 ± 1.27 mM
- citric acid LogC5, mean ± SD ([10]; after 7-day treatment, 40 volunteers, controls 2.69 ± 1.88 (zofenopril), 2.67 ± 2.01 (ramipril)): 2.51 ± 1.57 mM
- suppression of plasma ACE activity [15]: 74.4%

Structure (SMILES): C[C@H](CS)C(=O)N1C[C@@H](Sc2ccccc2)C[C@H]1C(=O)O [zofenoprilat]
- time to peak blood levels ([12]; after oral administration of zofenopril): 1.5 h
